In PubChem BioAssay AID1845195 (Molecular Pharmacology Branch, DTP, NCI, 2023):

Tested on: 156681-154-R-J1 tumor spheroid viability
Experiment: Anticancer human tumor 156681-154-R-J1 patient-derived melanoma cell line growth inhibition
Conditions: spheroids with HUVEC and MSC; for IC50: curve of first compound; for viability, T/C: stronger effect = lower value
In short: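 Complex spheroids of malignant cells with endothelial cells and mesenchymal stem cells; agents alone or combined, from near clinical Cmax (or 10 microM if unknown) down in half-log steps, 0.25% DMSO final.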
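Also: spheroids exposed to compounds for 7 days before readout.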
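For viability, T/C in this document: percent of vehicle control viability where 100% = DMSO-treated spheroids.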

## Cc1sc2c(c1C)C(c1ccc(Cl)cc1)=NC(CC(=O)Nc1ccc(O)cc1)c1nnc(C)n1-2 (stereo not given) + Cn1nnc2c(C(N)=O)ncn2c1=O
Second compound 1 µM
  IC50: > 3000 nM
Second compound 3.16 µM
  IC50: 857 nM
Second compound 10 µM
  IC50: 128 nM
Second compound 31.6 µM
  IC50: 20.4 nM
Second compound 100 µM
  IC50: 14.8 nM
Second compound 1 µM, first compound 0.00949 µM
  viability, T/C: 92%
Second compound 1 µM, first compound 0.03 µM
  viability, T/C: 76%
Second compound 1 µM, first compound 0.0949 µM
  viability, T/C: 81.5%
Second compound 1 µM, first compound 0.3 µM
  viability, T/C: 80.7%
Second compound 1 µM, first compound 0.949 µM
  viability, T/C: 70.9%
Second compound 1 µM, first compound 3 µM
  viability, T/C: 57%
Second compound 3.16 µM, first compound 0.00949 µM
  viability, T/C: 90.3%
Second compound 3.16 µM, first compound 0.03 µM
  viability, T/C: 70.2%
Second compound 3.16 µM, first compound 0.0949 µM
  viability, T/C: 76.4%
Second compound 3.16 µM, first compound 0.3 µM
  viability, T/C: 54.9%
Second compound 3.16 µM, first compound 0.949 µM
  viability, T/C: 52.4%
Second compound 3.16 µM, first compound 3 µM
  viability, T/C: 37.4%
Second compound 10 µM, first compound 0.00949 µM
  viability, T/C: 79.1%
Second compound 10 µM, first compound 0.03 µM
  viability, T/C: 75.5%
Second compound 10 µM, first compound 0.0949 µM
  viability, T/C: 47.9%
Second compound 10 µM, first compound 0.3 µM
  viability, T/C: 41.3%
Second compound 10 µM, first compound 0.949 µM
  viability, T/C: 35.6%
Second compound 10 µM, first compound 3 µM
  viability, T/C: 24.4%
Second compound 31.6 µM, first compound 0.00949 µM
  viability, T/C: 62.3%
Second compound 31.6 µM, first compound 0.03 µM
  viability, T/C: 43%
Second compound 31.6 µM, first compound 0.0949 µM
  viability, T/C: 31.8%
Second compound 31.6 µM, first compound 0.3 µM
  viability, T/C: 29%
Second compound 31.6 µM, first compound 0.949 µM
  viability, T/C: 22.6%
Second compound 31.6 µM, first compound 3 µM
  viability, T/C: 18.6%
Second compound 100 µM, first compound 0.00949 µM
  viability, T/C: 53.4%
Second compound 100 µM, first compound 0.03 µM
  viability, T/C: 44.5%
Second compound 100 µM, first compound 0.0949 µM
  viability, T/C: 26.4%
Second compound 100 µM, first compound 0.3 µM
  viability, T/C: 13.6%
Second compound 100 µM, first compound 0.949 µM
  viability, T/C: 12.3%
Second compound 100 µM, first compound 3 µM
  viability, T/C: 11.7%
